Measured values from US20190248739A1 (NEWLINK GENETICS CORPORATION, priority 2015, published 2019).
Where two headings read alike, the source gives them in different places.

Tests used:
[1] = solubility of indoximod and its salts in water, buffers and SGF; type: physicochemical
[2] = tested on: ectopic melanoma, colon and lung tumors, breast tumor models; conditions: cited from earlier work
[3] = human pharmacokinetics of oral indoximod; type: in vivo; conditions: plasma
[4] = pharmacokinetic testing of indoximod salts in capsule formulation in rats; type: in vivo; conditions: rat, plasma, po, capsules
Method: Three dose levels were investigated: 37, 185 or 500 μmol/kg.
Capsules were manually filled and the composition uniformity of a representative sample of capsules from each batch was verified by weight and by LC-MS/MS to determine the average indoximod content.
(§1) Rats were fasted 16 h prior to dosing to eliminate any confounding food effects, and food was returned 2 h after dosing.

[5] = indoximod plasma exposure in murine antitumor experiments; type: in vivo; conditions: mice; for exposure: ~500 mg/kg/day or oral 200 mg/kg bid
[6] = pharmacokinetic testing of indoximod prodrug salts in solid capsule formulation in cynomolgous monkeys
[7] = hygroscopicity and stability of indoximod and its salts; type: physicochemical
[8] = pharmacokinetic testing of indoximod prodrugs in liquid formulation in mice; conditions: for AUC(0-inf) / Cmax / Tmax / half-life: mouse, plasma, po; for % Change in Norm. Cmax / % Increase in Norm AUC: vs indoximod, Mouse, PO solution, salt form FB
Method: Blood samples (0.1-0.2 mL) were collected from the femoral artery port from rats or by retro-orbital bleeding from mice and plasma was immediately collected by centrifugation and stored on dry ice to avoid prodrug hydrolysis after plasma collection. […] The pharmacokinetic parameters reflect the average of individual parameter values obtained from each individual rat (n) or one common parameter from a single pharmacokinetic curve derived from blood samples obtained from a group of mice (n).

[9] = in-vitro dissolution test of SDD formulations in simulated gastric buffer (GB) and simulated intestinal fluid (SIF); type: physicochemical
Method: In this study, SDD formulations were made by two methods: hot process spray dry—formulation solution heated up to 110° C. before spraying dry, and basic spray dry—formulation pH raised up to ˜11.5 (room temperature) before spraying dry. The performance of each SDD formulation was investigated by in-vitro dissolution test in simulated gastric buffer (GB) and simulated intestinal fluid (SIF). […] In addition, higher drug load in the powder was preferred since it could decrease the dose amount of the final formulation. Based on all these criteria, two SDD formulations were selected for further in vivo PK studies in monkeys.

[10] = crossover pharmacokinetic study of indoximod free base, salts and SDD in cynomolgus monkeys; type: in vivo; conditions: male, cynomolgus monkey, plasma, po; for AUC(0-t): oral, read-out: AUC(0 −> 48 h)
Method: The SDD suspension formulations were prepared in 0.5% methylcellulose (Methocel).

[11] = pharmacokinetic testing of indoximod prodrug salts in solid capsule formulation in rats; type: in vivo; conditions: for % Change Cmax / % Change in AUC: vs indoximod free base
Method: These blends were formulated so that each capsule contained the same molar dose of each prodrug. […] The composition and uniformity of a representative sample of capsules from each batch was verified by weight and by LC-MS/MS to determine the average indoximod or prodrug content.
as §1

[12] = indoximod, cynomolgous monkeys, oral capsules, dose 275 μmol/kg, salt form free base
[13] = Table 10.1, rats, oral capsules, dose 37 μmol/kg, salt form free base
[14] = Table 10.1, rats, oral capsules, dose 185 μmol/kg, salt form free base
[15] = Table 10.1, rats, oral capsules, dose 500 μmol/kg, salt form free base
[16] = Table 10.2, indoximod, rats, oral capsules, dose 37 μmol/kg, salt form free base
[17] = Table 10.2, indoximod, rats, oral capsules, dose 185 μmol/kg, salt form free base
[18] = Table 10.2, indoximod, rats, oral capsules, dose 500 μmol/kg, salt form free base
[19] = Table 10.2, rats, oral capsules, dose 37 μmol/kg, salt form free base
[20] = Table 10.2, rats, oral capsules, dose 185 μmol/kg, salt form free base
[21] = Table 10.2, rats, oral capsules, dose 500 μmol/kg, salt form free base

- pH of the SGF solution (in brackets) ([1]; 25° C., SGF solubility test, listed as Free base): 2.32
- Solubility (25° C., mg/mL) SGF ([1]; 25° C., SGF, listed as Free base): 3.6 mg/mL
- pH of the water solution (in brackets) ([1]; 25° C., water solubility test, listed as Free base): 6.03
- Solubility (25° C., mg/mL) Water ([1]; 25° C., water, listed as Free base): 1.8 mg/mL
- solubility ([1]; aqueous solutions, buffered or un-buffered, pH 2, aqueous buffer, pH 2-8): 1800 to 2000 µg/mL
- Tmax [3]: ~3 h
- half-life [3]: ~10 h
- AUC(0-t) ([3]; patients, up to 800 mg/dose, read-out: drug exposure (AUC(0-last))): ~100 µM·h
- Cmax ([3]; po, 800 mg/dose, patients, about 800 mg/dose, read-out: maximum plasma concentration (Cmax)): 15 µM
- AUC(0-inf) ([3]; ~800 mg/dose): 100 µM·h
- AUC(0-inf) ([4]; 37 umol/kg): 390 ± 166 µM·h
- AUC(0-inf) ([4]; 185 umol/kg): 1080 ± 478 µM·h
- Cmax ([4]; 185 umol/kg): 20.8 ± 4 µM
- AUC(0-inf) ([4]; 500 umol/kg): 2870 ± 1380 µM·h
- exposure [5]: greater than 300 μM.h
- exposure ([5]; listed as Indoximod): > 300 µM·h
- Cmax ([5]; mouse, plasma, drinking water 3 mg/mL (~500 mg/kg/day) or oral 200 mg/kg bid): > 20 µM
- AUC(0->∞) ([6]; indoximod, cynomolgous monkeys, oral capsules, dose 92 μmol/kg, salt form free base): 38.5 ± 4 µM·h
- AUC(0->∞) [6, 12]: 74.9 ± 5 µM·h
- Cmax [6, 12]: 17.5 ± 3 µM
- Cmax ([6]; monkey, blood, po, 92 umol/kg): 8.2 ± 0.4 µM
- AUC(0-inf) ([6]; monkey, blood, po, 875 umol/kg): 165 ± 52 µM·h
- Cmax ([6]; monkey, blood, po, 875 umol/kg): 27.8 ± 8 µM
- hygroscopicity (weight gain) ([7]; 0-80%RH): 0.09%
- stability in solution ([7]; 0.1 N HCl and 50 mM phosphate buffers pH 2-8, 25° C., 24 hours): stable
- chemical stability of the solid powder form ([7]; 25° C/60%RH, 40° C., 40° C/75%RH, 60° C. and 70° C. for 4 weeks): chemically stable
- Hygroscopicity (0-80% RH) ([7]; Table 2, listed as Free base, in % (unit assumed)): 0.09
- AUC(0-inf) ([8]; 10 mg/kg): 34 µM·h
- Cmax ([8]; 10 mg/kg): 9 µM
- Tmax ([8]; 10 mg/kg): 0.5 h
- half-life ([8]; 10 mg/kg): 1.8 h
- AUC(0-inf) ([8]; 100 mg/kg): 325 µM·h
- Cmax ([8]; 100 mg/kg): 43 µM
- Tmax ([8]; 100 mg/kg): 1 h
- half-life ([8]; 100 mg/kg): 3.5 h
- % Change in Norm. Cmax ([8]; dose 10 mg/kg): 0%
- % Increase in Norm AUC ([8]; dose 10 mg/kg): 0%
- % Change in Norm. Cmax ([8]; dose 100 mg/kg): 0%
- % Increase in Norm AUC ([8]; dose 100 mg/kg): 0%
- UltraC90 ([9]; SIF, 90 min, after ultracentrifugation): 1,849 μg/mL
- UltraC1200 ([9]; SIF, 1200 min, after ultracentrifugation): 1,854 μg/mL
- CmaxGB ([9]; maximum indoximod concentration, dissolved in GB for 30 min): 5,154 μg/mL
- Cmax90 ([9]; maximum indoximod concentration, dissolved in SIF for 90 min): 2,213 μg/mL
- Cmax ([10]; 275 umol/kg): 12.9 ± 3.3 µM
- AUC(0-t) ([10]; 275 umol/kg, 275 μmol/kg): 66 ± 17 µM·h
- Cmax ([10]; 825 umol/kg): 25.6 ± 12.8 µM
- AUC(0-t) ([10]; 825 umol/kg, 825 μmol/kg): 127 ± 73 µM·h
- % Change Cmax [11, 13]: 0%
- % Change in AUC [11, 13]: 0%
- % Change Cmax [11, 14]: 0%
- % Change in AUC [11, 14]: 0%
- % Change Cmax [11, 15]: 0%
- % Change in AUC [11, 15]: 0%
- AUC(0->∞) [11, 16]: 390 ± 166 µM·h
- Cmax [11, 16]: 15.9 ± 8 µM
- AUC(0->∞) [11, 17]: 1080 ± 478 µM·h
- Cmax [11, 17]: 20.8 ± 4 µM
- AUC(0->∞) [11, 18]: 2871 ± 1379 µM·h
- Cmax [11, 18]: 76.2 ± 25 µM
- % Change Cmax [11, 19]: 0%
- % Change in AUC [11, 19]: 0%
- % Change Cmax [11, 20]: 0%
- % Change in AUC [11, 20]: 0%
- % Change Cmax [11, 21]: 0%
- % Change in AUC [11, 21]: 0%
- Cmax ([11]; Table 10.3, indoximod, rats, oral capsules, dose 37 μmol/kg, salt form free base): 15.9 ± 8 µM
- Cmax ([11]; Table 10.3, indoximod, rats, oral capsules, dose 185 μmol/kg, salt form free base): 20.8 ± 4 µM
- Cmax ([11]; Table 10.3, indoximod, rats, oral capsules, dose 500 μmol/kg, salt form free base): 76.2 ± 25 µM
- AUC(0-inf) ([11]; rat, plasma, po, 37 umol/kg): 390 ± 166 µM·h
- Cmax ([11]; rat, plasma, po, 37 umol/kg): 15.9 ± 8 µM
- AUC(0-inf) ([11]; rat, plasma, po, 185 umol/kg): 1080 ± 478 µM·h
- Cmax ([11]; rat, plasma, po, 185 umol/kg): 20.8 ± 4 µM
- AUC(0-inf) ([11]; rat, plasma, po, 500 umol/kg): 2870 ± 1380 µM·h
- Cmax ([11]; rat, plasma, po, 500 umol/kg): 76.2 ± 25 µM
Compound: Cn1cc(C[C@@H](N)C(=O)O)c2ccccc21 [indoximod, 1-methyl-D-tryptophan, reference compound]
- antitumor effect ([2]; in combination with chemotherapy): demonstrates antitumor effects
- antitumor effect ([2]; melanoma models, combination with anti-CTLA4 (ipilimumab)): synergistic antitumor effect
